Reference: PMC11762167, “G Protein-Coupled Receptor 17 Inhibits Glucagon-like Peptide-1 Secretion via a Gi/o-Dependent Mechanism in Enteroendocrine Cells” (Biomolecules, 2024)

Tests used:
[1] = test system: GLUTag cells; assay: Endpoint cAMP (HTRF) in control-transduced GLUTag cells; format: cell-based, murine; design: Mean Diff. of cAMP, MDL29,951 vs FSK alone (Tukey): unit not given here; settings: for Mean Diff. of cAMP, MDL29,951 vs FSK alone (Tukey): Ctl
Protocol: (§1) GLUTag cells were maintained in Dulbecco’s Modified Eagle Medium (DMEM) supplemented with 10% fetal bovine serum and 1% penicillin–streptomycin in a humidified incubator at 37 °C and 5% CO2. For adenovirus transduction, GLUTag cells were seeded into poly-D-lysine coated 96-well plates or 4-chamber slides. The next day, cells were transduced with adenoviruses (100–1250 viral particles per cell at time of seeding) as indicated. After 24–30 h, adenovirus-containing media was changed to serum-free growth media for overnight serum starvation. The following day, GLUTag cells were used for cAMP or calcium signaling assays, GLP-1 secretion assays, or immunostaining and imaging.
(§2) Endpoint cAMP measurements were conducted as follows. GLUTag cells were seeded into poly-D-lysine-coated 96-well plates and transduced with adenovirus as specified above and then tested for cAMP signaling. Medium was removed and cells were washed with cAMP stimulation buffer (Hanks’ balanced salt solution (HBSS), 20 mM HEPES, pH 7.4) and then incubated in cAMP stimulation buffer for 30 min at 37 °C and 5% CO2. Cells were then treated for 30 min with agonist and forskolin in the presence of 500 µM IBMX at 37 °C and 5% CO2. Stimulation buffer was then decanted, and cAMP lysis buffer (50 mM HEPES, 10 mM CaCl2, 0.35% Triton X-100, and 500 µM IBMX) was added and shaken at 700 rpm for 1 h. Lysate was transferred to a 384-well plate, and the cAMP levels were quantified using the Cisbio HTRF cAMP (Gi kit; Revvity, Waltham, MA, USA) according to the manufacturer’s protocol.

[2] = molecular target: T1, hGPR17L-V96M (Homo sapiens, UniProt Q13304, V96M); assay: Endpoint cAMP in GLUTag cells expressing hGPR17L-V96M; format: cell-based
T1 construct: host or cells: GLUTag cells, adenoviral transduction
T1 sequence (Q13304 whole entry V96M): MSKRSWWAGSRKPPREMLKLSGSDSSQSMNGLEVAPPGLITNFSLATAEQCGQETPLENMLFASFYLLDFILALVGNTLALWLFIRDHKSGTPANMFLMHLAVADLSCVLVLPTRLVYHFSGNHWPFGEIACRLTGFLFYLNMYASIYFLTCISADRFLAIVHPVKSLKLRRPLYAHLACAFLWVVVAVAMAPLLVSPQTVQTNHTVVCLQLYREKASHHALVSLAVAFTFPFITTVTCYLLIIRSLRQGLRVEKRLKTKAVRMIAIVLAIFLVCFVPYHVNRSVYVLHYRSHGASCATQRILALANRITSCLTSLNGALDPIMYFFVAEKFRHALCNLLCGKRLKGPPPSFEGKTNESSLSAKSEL
Protocol: as §1, §2

[3] = molecular target: mGPR17 (Mus musculus, UniProt Q6NS65); assay: Calcium mobilization in HEK293 cells transfected with mGPR17; format: cell-based
Sequence of mGPR17 (Q6NS65 whole entry): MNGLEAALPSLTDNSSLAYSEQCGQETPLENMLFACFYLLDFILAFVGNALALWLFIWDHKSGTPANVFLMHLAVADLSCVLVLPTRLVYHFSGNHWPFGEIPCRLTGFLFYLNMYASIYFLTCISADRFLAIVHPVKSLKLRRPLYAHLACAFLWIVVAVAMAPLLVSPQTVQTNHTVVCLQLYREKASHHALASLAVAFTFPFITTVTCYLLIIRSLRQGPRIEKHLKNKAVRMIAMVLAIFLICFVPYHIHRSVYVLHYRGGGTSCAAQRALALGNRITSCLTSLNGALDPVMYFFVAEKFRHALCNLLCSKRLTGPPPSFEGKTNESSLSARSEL
Protocol: HEK293 cells were maintained and transfected as previously described.
Calcium flux in HEK293 cells was measured as previously described.

[4] = molecular target: T2, hGPR17L (Homo sapiens, UniProt Q13304); assay: Membrane β-arrestin recruitment in HEK293 cells transfected with hGPR17L; format: cell-based
T2 sequence (Q13304 whole entry): as the sequence (Q13304 whole entry V96M) above, with M96V counted along it
Protocol: Membrane β-arrestin recruitment measurements were conducted using a luminescent membrane β-arrestin recruitment reporter assay. HEK293 cells were seeded into white, opaque, poly-D-lysine-coated 96-well plates and transiently transfected using Lipofectamine 3000 (Thermo Fisher Scientific, Waltham, MA, USA) according to the manufacturer’s protocol on the following day. At 48 h post-transfection, cells were washed twice with assay buffer (HBSS, 20 mM HEPES, pH 7.4) and allowed to equilibrate to room temperature for 15 min in assay buffer. Cells were then loaded with coelenterazine h (Nanolight Technology, Prolume Ltd., Lakeside, AZ, USA; 5 µM final concentration) for 5 min in the dark. Luminescence was read using a SpectraMax iD3 (Molecular Devices) with 1 s integration time. Baseline luminescence was read every 2 min for 6 min. Agonist was added and then luminescence was read every 2 min for 30 min.

[5] = molecular target: T2, hGPR17L; assay: Calcium flux (Calcium 6) in GLUTag cells expressing hGPR17L; format: cell-based; design: host or cells: GLUTag cells (murine enteroendocrine line), adenoviral transduction; Mean Diff. Ctl vs. hGPR17L: unit not given here; settings: for Mean Diff.: hGPR17L; for Mean Diff. (Tukey's multiple comparisons test, Figure 4C): hGPR17L-WT
Protocol: as §1
GLUTag cells were seeded into black, clear bottom, poly-D-lysine-coated 96-well plates. Cells were transduced and serum starved as specified above. Growth medium was then replaced with 100 μL/well assay buffer (HBSS, 20 mM HEPES, pH 7.4) and 100 μL/well Calcium 6 loading dye (R8190; Molecular Devices, San Jose, CA, USA). During dye loading, cells were incubated at 37 °C and 5% CO2 for 2 h. MDL29,951 or KCl was added to the wells and fluorescence (485 nm excitation, 525 nm emission, and 515 nm automatic emission cutoff) was measured using a Molecular Devices FlexStation3 (Molecular Devices) at 37 °C. For experiments with PTX, cells were pretreated with 100 ng/mL PTX overnight and 100 ng/mL PTX was included with Calcium 6 loading dye for calcium flux assays. For experiments with YM-254890, cells were pretreated for 30 min at 37 °C.

[6] = HEK293 mGPR17 versus hGPR17L and hGPR17S

O=C(O)CCc1c(C(=O)O)[nH]c2cc(Cl)cc(Cl)c12 [MDL29,951]
effect on PGE2-stimulated cAMP levels ([1]; 300 nM PGE2, control transduction condition): no effect | effect on cAMP levels upon PMA treatment ([1]; 300 nM PMA, control-transduced cells): no effect | Mean Diff. of cAMP, MDL29,951 vs FSK alone (Tukey) ([1]; log [MDL29,951] (M) -4.0): 0.00975 | Mean Diff. of cAMP, MDL29,951 vs FSK alone (Tukey) ([1]; log [MDL29,951] (M) -4.6): 0.066 | Mean Diff. of cAMP, MDL29,951 vs FSK alone (Tukey) ([1]; log [MDL29,951] (M) -5.2): 0.1185 | Mean Diff. of cAMP, MDL29,951 vs FSK alone (Tukey) ([1]; log [MDL29,951] (M) -5.8): 0.114 | Mean Diff. of cAMP, MDL29,951 vs FSK alone (Tukey) ([1]; log [MDL29,951] (M) -6.4): 0.183 | Mean Diff. of cAMP, MDL29,951 vs FSK alone (Tukey) ([1]; log [MDL29,951] (M) -7.0): 0.173 | Mean Diff. of cAMP, MDL29,951 vs FSK alone (Tukey) ([1]; log [MDL29,951] (M) -7.6): 0.2335 | Mean Diff. of cAMP, MDL29,951 vs FSK alone (Tukey) ([1]; log [MDL29,951] (M) -8.2): 0.2168 | Mean Diff. of cAMP, MDL29,951 vs FSK alone (Tukey) ([1]; log [MDL29,951] (M) -8.8): 0.0115 | Mean Diff. of cAMP, MDL29,951 vs FSK alone (Tukey) ([1]; log [MDL29,951] (M) -9.4): -0.09325 | effect on forskolin-stimulated cAMP ([1]; control-transduced cells, 10 µM forskolin): no effect | effect on forskolin-stimulated cAMP ([2]; 10 µM forskolin, GLUTag hGPR17L-V96M): no significant effect | Mean Diff. (Tukey's multiple comparisons test), cAMP, Row 10 vs. Row 11 ([2]; hGPR17L-V96M (200), log [MDL29,951] (M) -4.0 vs. Vehicle, Forskolin stimulation, Figure 4B): -6.053 | Mean Diff. (Tukey's multiple comparisons test), cAMP, Row 9 vs. Row 11 ([2]; hGPR17L-V96M (200), log [MDL29,951] (M) -4.6 vs. Vehicle, Forskolin stimulation, Figure 4B): -5.593 | Mean Diff. (Tukey's multiple comparisons test), cAMP, Row 8 vs. Row 11 ([2]; hGPR17L-V96M (200), log [MDL29,951] (M) -5.2 vs. Vehicle, Forskolin stimulation, Figure 4B): -7.097 | Mean Diff. (Tukey's multiple comparisons test), cAMP, Row 7 vs. Row 11 ([2]; hGPR17L-V96M (200), log [MDL29,951] (M) -5.8 vs. Vehicle, Forskolin stimulation, Figure 4B): -12.44 | Mean Diff. (Tukey's multiple comparisons test), cAMP, Row 6 vs. Row 11 ([2]; hGPR17L-V96M (200), log [MDL29,951] (M) -6.4 vs. Vehicle, Forskolin stimulation, Figure 4B): -8.68 | Mean Diff. (Tukey's multiple comparisons test), cAMP, Row 5 vs. Row 11 ([2]; hGPR17L-V96M (200), log [MDL29,951] (M) -7.0 vs. Vehicle, Forskolin stimulation, Figure 4B): -6.907 | Mean Diff. (Tukey's multiple comparisons test), cAMP, Row 4 vs. Row 11 ([2]; hGPR17L-V96M (200), log [MDL29,951] (M) -7.6 vs. Vehicle, Forskolin stimulation, Figure 4B): -4.737 | Mean Diff. (Tukey's multiple comparisons test), cAMP, Row 3 vs. Row 11 ([2]; hGPR17L-V96M (200), log [MDL29,951] (M) -8.2 vs. Vehicle, Forskolin stimulation, Figure 4B): -3.133 | Mean Diff. (Tukey's multiple comparisons test), cAMP, Row 2 vs. Row 11 ([2]; hGPR17L-V96M (200), log [MDL29,951] (M) -8.8 vs. Vehicle, Forskolin stimulation, Figure 4B): 3.127 | Mean Diff. (Tukey's multiple comparisons test), cAMP, Row 1 vs. Row 11 ([2]; hGPR17L-V96M (200), log [MDL29,951] (M) -9.4 vs. Vehicle, Forskolin stimulation, Figure 4B): -1.35 | Calcium Emax (Mean Peak ΔF/F) ([3]; HEK293 mGPR17): 0.70±0.09 | Calcium Potency (pEC50) ([3]; HEK293 mGPR17): 6.31±0.05 | EC50 ([3]; HEK293 mGPR17, read-out: Calcium Potency EC50): 490 nM | calcium response potency, fold less potent than human GPR17 isoforms [3, 6]: approximately 10 fold | reduction in calcium efficacy as compared to human GPR17 isoforms [3, 6]: > 60% | β-arrestin Emax (Peak ΔRLU/RLU) [4]: 0.50±0.03 | β-arrestin Potency (pEC50) [4]: 6.72±0.09 | EC50 ([4]; read-out: β-arrestin Potency EC50): 190 nM | Mean Diff. Ctl vs. hGPR17L ([5]; Figure 1B, Ctl vs. hGPR17L at log [MDL29,951] (M) -4.5): -0.777 | Mean Diff. Ctl vs. hGPR17L ([5]; Figure 1B, Ctl vs. hGPR17L at log [MDL29,951] (M) -5.0): -0.707 | Mean Diff. Ctl vs. hGPR17L ([5]; Figure 1B, Ctl vs. hGPR17L at log [MDL29,951] (M) -5.5): -0.62 | Mean Diff. Ctl vs. hGPR17L ([5]; Figure 1B, Ctl vs. hGPR17L at log [MDL29,951] (M) -6.0): -0.5407 | Mean Diff. Ctl vs. hGPR17L ([5]; Figure 1B, Ctl vs. hGPR17L at log [MDL29,951] (M) -6.4): -0.458 | Mean Diff. Ctl vs. hGPR17L ([5]; Figure 1B, Ctl vs. hGPR17L at log [MDL29,951] (M) -6.9): -0.31 | Mean Diff. Ctl vs. hGPR17L ([5]; Figure 1B, Ctl vs. hGPR17L at log [MDL29,951] (M) -7.4): -0.206 | Mean Diff. Ctl vs. hGPR17L ([5]; Figure 1B, Ctl vs. hGPR17L at log [MDL29,951] (M) -7.9): -0.06033 | Mean Diff. Ctl vs. hGPR17L ([5]; Figure 1B, Ctl vs. hGPR17L at log [MDL29,951] (M) -8.3): -0.009667 | Mean Diff. Ctl vs. hGPR17L ([5]; Figure 1B, Ctl vs. hGPR17L at log [MDL29,951] (M) -8.8): -0.002 | Mean Diff. ([5]; Figure 1B, log [MDL29,951] (M) -4.5 vs. Vehicle): 0.758 | Mean Diff. ([5]; Figure 1B, log [MDL29,951] (M) -5.0 vs. Vehicle): 0.6893 | Mean Diff. ([5]; Figure 1B, log [MDL29,951] (M) -5.5 vs. Vehicle): 0.6163 | Mean Diff. ([5]; Figure 1B, log [MDL29,951] (M) -6.0 vs. Vehicle): 0.538 | Mean Diff. ([5]; Figure 1B, log [MDL29,951] (M) -6.4 vs. Vehicle): 0.47 | Mean Diff. ([5]; Figure 1B, log [MDL29,951] (M) -6.9 vs. Vehicle): 0.3087 | Mean Diff. ([5]; Figure 1B, log [MDL29,951] (M) -7.4 vs. Vehicle): 0.2053 | Mean Diff. ([5]; Figure 1B, log [MDL29,951] (M) -7.9 vs. Vehicle): 0.06133 | Mean Diff. ([5]; Figure 1B, log [MDL29,951] (M) -8.3 vs. Vehicle): 0.004667 | Mean Diff. ([5]; Figure 1B, log [MDL29,951] (M) -8.8 vs. Vehicle): -0.001667 | maximum peak ΔF/F, calcium flux ([5]; GLUTag hGPR17L, Figure 1B): 0.80 ± 0.07 | pEC50, calcium flux ([5]; GLUTag hGPR17L, Figure 1B): 6.66 ± 0.13 | EC50 ([5]; GLUTag hGPR17L, Figure 1B, read-out: potency (EC50), calcium flux): 220 nM | shift in the EC50 of MDL29,951, calcium mobilization ([5]; PTX-treated versus vehicle-treated cells): 3 fold | Mean Diff. (Tukey's multiple comparisons test, Figure 4C) ([5]; log [MDL29,951] (M) -4.5 vs. Vehicle): 100.4 | Mean Diff. (Tukey's multiple comparisons test, Figure 4C) ([5]; log [MDL29,951] (M) -5.0 vs. Vehicle): 91.26 | Mean Diff. (Tukey's multiple comparisons test, Figure 4C) ([5]; log [MDL29,951] (M) -5.5 vs. Vehicle): 81.52 | Mean Diff. (Tukey's multiple comparisons test, Figure 4C) ([5]; log [MDL29,951] (M) -6.0 vs. Vehicle): 71.5 | Mean Diff. (Tukey's multiple comparisons test, Figure 4C) ([5]; log [MDL29,951] (M) -6.4 vs. Vehicle): 61.96 | Mean Diff. (Tukey's multiple comparisons test, Figure 4C) ([5]; log [MDL29,951] (M) -6.9 vs. Vehicle): 41.28 | Mean Diff. (Tukey's multiple comparisons test, Figure 4C) ([5]; log [MDL29,951] (M) -7.4 vs. Vehicle): 27.22 | Mean Diff. (Tukey's multiple comparisons test, Figure 4C) ([5]; log [MDL29,951] (M) -7.9 vs. Vehicle): 8.591 | Mean Diff. (Tukey's multiple comparisons test, Figure 4C) ([5]; log [MDL29,951] (M) -8.3 vs. Vehicle): 0.737 | Mean Diff. (Tukey's multiple comparisons test, Figure 4C) ([5]; log [MDL29,951] (M) -8.8 vs. Vehicle): -0.2507 | pEC50, calcium mobilization ([5]; vehicle-treated cells, Figure 2C): 6.34 ± 0.06 | EC50 ([5]; vehicle-treated cells, Figure 2C, read-out: EC50, calcium mobilization): 440 nM
